One series has as its system K. pneumoniae ATCC 43816. It counts as cell-based, Klebsiella pneumoniae. As to the method:
(§1) The inhibition of representative microorganisms by peptides was evaluated by the modified broth dilution technique. The microorganisms included Candida albicans (C. albicans, NCTC 10231), Enterococcus faecalis (E. faecalis, NCTC 12697), Staphylococcus aureus (S. aureus, NCTC 10788), Klebsiella pneumoniae (K. pneumoniae, ATCC 43816), Methicillin-resistant Staphylococcus aureus (MRSA, ATCC 12493), Pseudomonas aeruginosa (P. aeruginosa, ATCC 27853), and Escherichia coli (E. coli, NCTC 10418).
(§2) Firstly, the selected microorganism was incubated in conical flasks with 100 mL Mueller Hinton broth (MHB) overnight. Then, the bacterial solution was sub-cultured in 20 mL MHB until it reached the logarithmic growth phase. Meanwhile, the peptide solution was prepared. The peptide was dissolved into 128 × 10^2 μM solution with phosphate-buffered saline (PBS) and then double-diluted into 64, 32, 16, 8, 4, 2, and 1 × 10^2 μM. Each sample solution and positive control ([…] Norfloxacin) was added to 96-well plates and divided into five replicates, 1 μL per well. The blank control was 100 µL MHB, and the growth control was 100 µL bacterial solutions. When the optical density (OD) value corresponding to the microbial concentration reached the value (Gram-positive bacteria: 0.23; Gram-negative bacteria: 0.4; fungi: 0.15) in their logarithmic growth phase, the microorganisms were diluted to the required concentration with MHB (Gram-negative and Gram-positive bacteria: 5 × 10^5 CFU/mL; fungi: 1 × 10^6 CFU/mL).
(§3) The diluted bacterial solution was then added to the 96-well plate at 99 µL per well. The plate was incubated at 37 °C and observed the next day. The MIC was the corresponding lowest peptide concentration without microbial growth. The absorbance of the 96-well plate at 550 nm was measured by Synergy HT Microplate Spectrophotometer (Biotech, Minneapolis, MN, USA), and the obtained values were quantitatively analyzed by Prism 7 software. Subsequently, the concentrations corresponding to the clear solution were removed from the 96-well plate in 10 µL and dropped onto the solidified MHA. The Petri dishes with MHA were cultured overnight, observed and the minimum peptide concentration without colonies was MBC.

The next series has as its system C. albicans NCTC 10231. It counts as cell-based, Candida albicans. As to the method: as §1, §2, §3
A further series relates to P. aeruginosa ATCC 27853. It counts as cell-based, Pseudomonas aeruginosa. The protocol: as §1, §2, §3
Series [1] concerns E. coli NCTC 10418 biofilm. It counts as cell-based, Escherichia coli. Conditions: NCTC 10418, 24 h. The protocol:
(§4) As previously described, the MBIC and MBEC of the peptides against bacteria were determined. Staphylococcus aureus (S. aureus, NCTC 10788) and Escherichia coli (E. coli, NCTC 10418) was selected as representative strains. For the MBIC assay, the cultures were sub-cultured to their logarithmic growth phases. The diluted bacterial suspension was incubated with the peptide solution overnight in a 96-well plate. The resulting biofilm was washed with PBS solution, fixed with methanol, and dried. The biofilm was then stained with 0.1% (w/v) crystal violet, washed again with PBS, and dissolved in 30% acetic acid. The absorbance of the solution in each well at 595 nm was counted by the Synergy HT Microplate Spectrophotometer (Biotech, Minneapolis, MN, USA). Compared with the negative control, the lowest concentration that inhibits biofilm formation was MBIC. For the determination of MBEC, the diluted bacterial solution was incubated in the 96-well plate for 24 h, with 100 µL per well. Then, the biofilm was washed and re-incubated with 100 µL peptide-medium solution. After 24 h, the biofilm was again washed, stained, and dissolved as in the MBIC assay. Each well was detected at 595 nm by the same plate reader in MBIC. Compared with the negative control, the lowest concentration to eliminate biofilm was MBEC.

The next series concerns E. coli NCTC 10418. The series is classed as cell-based, Escherichia coli. As to the method:
as §1, §2, §3

The next series deals with MRSA NCTC 12493. It counts as cell-based, Methicillin-resistant Staphylococcus aureus.
Series [2] has as its system S. aureus NCTC 10788 biofilm. It counts as cell-based, Staphylococcus aureus. Conditions: NCTC 10788, 24 h. The protocol: as §4
Series [3] has as its system S. aureus NCTC 10788. The series is classed as cell-based, Staphylococcus aureus. As to the method:
as §1, §2, §3

Series [4] deals with S. aureus NCTC 10788. It counts as cell-based, Staphylococcus aureus. The protocol: As mentioned in the previous study, the salt and pH sensitivities of AMPs exposed to physiological concentrations of salts or non-neutral environments were tested. MHB containing different ion concentrations (150 mM NaCl, 1 mM MgCl2, and 4 μM FeCl3) and MHB with pH 6.0 and pH 8.0 were prepared. The selected microorganism Staphylococcus aureus (S. aureus, NCTC 10788) was incubated overnight in the prepared medium, sub-cultured to the logarithmic phase, and then diluted to 5 × 10^5 CFU/mL. The subsequent steps were carried out as the MIC/MBC assay.
This is another data set of the same source.

A further series has as its system E. faecalis NCTC 12697. The series is classed as cell-based, Enterococcus faecalis. The protocol:
as §1, §2, §3

For series [5], the system named is S. aureus infected Galleria mellonella larvae. Conditions: in vivo. The protocol:
Galleria mellonella larvae of equal weight were injected with bacterial suspensions to observe the peptides’ efficacy. First, the wax worm larvae were weighed (Livefood UK Ltd., Rooks Bridge, UK). The appropriate weight for the assay was 250 ± 25 mg. Then, S. aureus NCTC 10788 was cultured in sterilized saline until the bacterial suspension density reached 10^8 CFU/mL. […] Then, 10 µL peptide solutions were injected into the larvae at 6, 12, and 24 mg/kg. The positive control was the dosage of 20 mg/kg Vancomycin. The negative control was the administration of saline. In total, nine wax worms were included in each group. After being injected, the number of larvae deaths was recorded every 12 h until it reached 120 h.

≈ marks a conversion by molar mass, not a printed value. Read-outs that look alike come from different tables or passages of the source. Where a SMILES comes first, the peptide text is derived from it.

The source of these data is article PMC8868508, “Kassporin-KS1: A Novel Pentadecapeptide from the Skin Secretion of Kassina senegalensis: Studies on the Structure-Activity Relationships of Site-Specific “Glycine-Lysine” Motif Insertions” (Antibiotics, 2022).

For orientation: MIC means the lowest concentration found to suppress growth.

On to `CC[C@H](C)[C@H](NC(=O)[C@H](C)NC(=O)[C@H](CCC(=O)O)NC(=O)[C@H](CCC(N)=O)NC(=O)[C@H](CCCCN)NC(=O)CNC(=O)[C@H](C)NC(=O)[C@H](CC(C)C)NC(=O)[C@H](C)NC(=O)[C@H](CC(C)C)NC(=O)[C@@H](N)Cc1ccccc1)C(=O)N[C@@H](C)C(=O)N[C@@H](CCCCN)C(=O)N[C@@H](CC(C)C)C(=O)N[C@@H](CCCCN)C(N)=O` [QUB-1599] (H-FLALAGKQEAIAKLK-NH2), for which the MBC with K. pneumoniae ATCC 43816, in the series on C. albicans NCTC 10231, in the series on P. aeruginosa ATCC 27853, in the series with E. coli NCTC 10418, in the series with MRSA NCTC 12493 and with S. aureus NCTC 10788 [3] was above 128 µM throughout. The MBC with S. aureus NCTC 10788 [4] and in the series with E. faecalis NCTC 12697 was above 128 µM in each case. The MIC in the series on K. pneumoniae ATCC 43816, in the series on C. albicans NCTC 10231, in the series on P. aeruginosa ATCC 27853, in the series on E. coli NCTC 10418, against MRSA NCTC 12493 and in the series with S. aureus NCTC 10788 [3] was above 128 µM throughout. The minimum inhibitory concentration (MIC) in the series with S. aureus NCTC 10788 [4] and with E. faecalis NCTC 12697 was above 128 µM each time. For the same compound, the MBEC in [1] and in [2] was >128/>128 µM in each case. In addition, the MBIC in [1] and in series [2] was >128/>128 µM each time.
On to `CC[C@H](C)[C@H](NC(=O)[C@H](C)NC(=O)[C@H](CCC(=O)O)NC(=O)[C@H](CCC(N)=O)NC(=O)[C@@H](NC(=O)[C@H](CC(C)C)NC(=O)[C@H](C)NC(=O)[C@H](CC(C)C)NC(=O)[C@H](C)NC(=O)[C@H](CC(C)C)NC(=O)[C@@H](N)Cc1ccccc1)[C@@H](C)CC)C(=O)N[C@@H](C)C(=O)N[C@@H](CCCCN)C(=O)N[C@@H](CC(C)C)C(=O)N[C@@H](CCCCN)C(N)=O` [QUB-1641] (H-FLALALIQEAIAKLK-NH2), for which the MBC with K. pneumoniae ATCC 43816 was above 128 µM; in the series on C. albicans NCTC 10231 it was above 128 µM; in the series on P. aeruginosa ATCC 27853 it was above 128 µM; with E. coli NCTC 10418, above 128 µM; in the series on MRSA NCTC 12493 it was 128 µM (≈ 210 µg/mL); with S. aureus NCTC 10788 [3], 64 µM. The MBC against S. aureus NCTC 10788 [4] was above 128 µM; in the series with E. faecalis NCTC 12697, 128 µM. Also, the MIC in the series on K. pneumoniae ATCC 43816 was above 128 µM; with C. albicans NCTC 10231, above 128 µM; with P. aeruginosa ATCC 27853, above 128 µM; in the series on E. coli NCTC 10418, above 128 µM; with MRSA NCTC 12493 it was 64 µM (≈ 105 µg/mL); in the series with S. aureus NCTC 10788 [3] it was 64 µM. Also, the MIC in the series on E. faecalis NCTC 12697 is listed as 64 µM. For the same compound, the figures for the MBEC in [1] and in series [2] were >128/>128 µM and 128/>128 µM, respectively. The figures for the MBIC in series [1] and in [2] were >128/>128 µM and 128/>128 µM, respectively. Further, in series [5], the “effect of injection on larvae” value is “causing the larvae to die directly after injection”.
